For orientation: IC50 means the midpoint of a concentration-inhibition curve.

Our source for the IC50 values is patent US20230348450A1, “CARBOXYLIC ACID-CONTAINING COMPOUNDS AS MODULATORS OF BIS-PHOSPHOGLYCERATE MUTASE FOR THE TREATMENT OF SICKLE CELL DISEASE” (Genzyme Corporation, priority 2020, published 2023).

A value given as a limit tells only on which side of the number the result lay.

Chain of hBPGM (P07738 whole entry, looked up): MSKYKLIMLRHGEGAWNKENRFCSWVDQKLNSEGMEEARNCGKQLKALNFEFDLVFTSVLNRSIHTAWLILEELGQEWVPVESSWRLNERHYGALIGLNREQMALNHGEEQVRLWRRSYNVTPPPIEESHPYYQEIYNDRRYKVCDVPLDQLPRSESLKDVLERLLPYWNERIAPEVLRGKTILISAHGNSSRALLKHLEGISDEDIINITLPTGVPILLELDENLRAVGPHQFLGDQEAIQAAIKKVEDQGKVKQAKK

This test has as its target hBPGM (Homo sapiens (Human), UniProt P07738). Put plainly: BPGM Synthase Assay. As to conditions: Table 6 additional results; read-out: huBPGM: synthase Enzyme IC50. Type of test: biochemical. The method, then:
Example B1. BPGM Synthase Assay
The following materials were used in this assay: deionized water; Bisphosphoglycerate mutase (BPGM; Standard Buffer: 50 mM Tris, 0.01% Tween 20, pH 7.4); BPGM Reaction Buffer (50 mM Tris, 0.01% Tween 20, 3.23 mM KH2PO4, pH 7.4); dithiothreitol (DTT; Stock solution: 100 mM in Standard Buffer); 384-Well Black Assay Plate (Corning, P/N 3575); DMSO; BPGM Stock Solution (500 nM in BPGM Standard Buffer); Glyceraldehyde 3-phosphate dehydrogenase (GAPDH; Stock Solution: 40 U/mL in 20 mM Tris-HCL Buffer with 20% Glycerol, 1 mM EDTA, 1 mM DTT); Glyceraldehyde 3-phosphate (GAP; Stock Solution: 20 mM in BPGM Standard Buffer); 3-PG Stock Solution (500 μM in BPGM Standard Buffer); Nicotinamide adenine dinucleotide (NAD; Stock Solution: 50 mM in BPGM Standard Buffer); Koningic Acid (1 mM Stock in DMSO); Resazurin Stock Solution (10 mM in DMSO); Diaphorase Stock Solution (40 U/mL in BPGM Standard Buffer); DTT Reaction Buffer (1 mM DTT in BPGM Reaction Buffer); Enzyme Solution (5 nM BPGM, 0.4 U/mL GAPDH in DTT Reaction Buffer); GAPDH Solution (0.4 U/mL GAPDH in DTT Reaction Buffer); Substrate Solution (2 mM NAD, 20 μM 3PG, 800 μM GAP in DTT Reaction Buffer); and Resazurin Solution (5 U/mL Diaphorase, 500 μM Resazurin in BPGM Standard Buffer).
To the assay plate was added Enzyme Solution (20 uL) to columns 2-22 and 24 of the assay plate. To columns 1 and 23 was added GAPDH Solution (20 uL). A separate compound plate was prepared at the desired concentrations and all wells were normalized with 5% DMSO. The compound plate was incubated for 30 minutes at RT. Next, the substrate solution (20 μL) was dispensed to all reaction wells and the plate was incubated for 60 minutes at RT. Koningic acid (1 μL) was added and the plate was incubated for 10 minutes at RT. During this time period, the NADH fluorescence was read at ex: 360/em: 460. Next, Resazurin Solution (10 μL) was added to all reaction wells and the plate was incubated for 30 minutes at RT. The resorufin fluorescence was then read at ex:544/em:590.
In the case of `Cc1nc(COc2ccc(F)cn2)sc1-c1cnn(-c2ccc(C(=O)O)cc2)n1` [Example 19], the IC50 turned out to be 0.85 µM.

Take `Cc1nc(CO)sc1-c1cccc(-c2c[nH]c(C(=O)O)c2)n1` [Example 77]: the 50% inhibitory concentration (IC50) is > 25 µM.

With `COC(=O)NCc1nc(C)c(-c2csc(-c3cc(N)c(C(=O)O)cc3F)n2)s1` [Example 195], the IC50 came out at 1.2 µM.

In the case of `Cc1ccc(C#N)c(OCCc2ccn(-c3cccc(-c4ccc(C(=O)O)c(O)c4)c3)n2)n1` [Example 311], the IC50 turned out to be 21 µM.

Regarding `Cc1nc(COc2ccc(C(F)(F)F)nn2)sc1-c1cccc(-c2ccc(C(=O)O)cc2)n1` [Example 48], the concentration for half-maximal inhibition (IC50) was 1.9 µM.

In the case of `Cc1nc(COc2ncccn2)sc1-c1cccc(-c2ccc(C(=O)O)o2)n1` [Example 33], the IC50 was 11 µM.

For `Cc1nc(C)c(-c2ccn(-c3ccc(C(=O)O)c(O)c3)n2)s1` [Example 288], the 50% inhibitory concentration (IC50) was 3.8 µM.

`Cc1nc(COc2ncccn2)sc1-c1ccnc(-c2ccc(C(=O)O)cc2)c1` [Example 23]: the IC50 is 17 µM.

For `Cc1nc(C)c(NC(=O)Nc2ccc(C(=O)O)c(O)c2)s1` [Example 337], the IC50 is > 25 µM.

On to `O=C(O)c1ccc(-c2cccc(N3CCC(COc4ncccn4)CC3)n2)cc1` [Example 24], for which the IC50 is > 25 µM.

Take `Cc1nc(C)c(-c2nc(-c3cc(O)c(C(=O)O)cc3F)sc2C)s1` [Example 241]: the IC50 was determined as 21 µM.

For the compound `Cc1ccc(C#N)c(OCCc2cnn(-c3cccc(-c4ccc(C(=O)O)c(O)c4)c3)c2)n1` [Example 303], the IC50 came to 17 µM.

Regarding `Cc1nc(CNC(C)c2cccnc2)sc1-c1csc(-c2cc(O)c(C(=O)O)cc2F)n1` (stereo not shown) [Example 170], the IC50 was found to be 1.2 µM.

For the compound `Cc1nc(Cc2cccc(C(F)(F)F)c2)sc1-c1cccc(-c2ccc(C(=O)O)c(O)c2)c1` [Example 317], the IC50 amounted to 3 µM.

`Cc1nc(Cn2ccccc2=O)sc1-c1cccc(-c2ccc(C(=O)O)c(O)c2)c1` [Example 290]: the IC50 was 2.2 µM.

`Cc1nc(C)c(-c2csc(-c3ccc(C(=O)O)c(O)c3)n2)s1` [Example 315]: the IC50 turned out to be 1.4 µM.

With `Cc1nc(CNCC(C)(C)C)sc1-c1cccc(-c2ccc(C(=O)O)cc2)c1` [Example 42], the IC50 is > 25 µM.

On to `Cc1nc(C)c(-c2ccnc(-c3ccc(C(=O)O)c(O)c3)c2)s1` [Example 310], for which the IC50 came out at 2 µM.

Take `Cc1nc(CO)sc1-c1cccc(-c2ccc(C(=O)NCC(=O)N3CCC(C(=O)O)C3)cc2)n1` (stereo not shown) [Example 92]: the 50% inhibitory concentration (IC50) was > 25 µM.

For `Cc1nc(COc2ncccn2)sc1-c1cccc(-c2ccc(C(=O)O)c(C(F)F)c2)n1` [Example 54], the half-maximal inhibitory concentration (IC50) was determined as 0.18 µM.

Take `Cc1nc(C)c(/C=C/c2ccc(C(=O)O)c(O)c2)s1` [Example 333]: the IC50 was found to be 11 µM.

With `Cc1nc(C)c(-c2cccc(-c3ccc(C(=O)O)cc3)c2C)s1` [Example 306], the half-maximal inhibitory concentration (IC50) is > 250 µM.

Take `O=C(O)c1ccc(-c2nc(-c3ccnc(CO)c3)cs2)cc1` [Example 38]: the half-maximal inhibitory concentration (IC50) was > 25 µM.

With `Cc1nc(Cc2ccc(C(F)(F)F)cc2)sc1-c1cccc(-c2ccc(C(=O)O)c(O)c2)c1` [Example 312], the 50% inhibitory concentration (IC50) was found to be 6.6 µM.

In the case of `Cc1nc(COc2ncccn2)sc1-c1cccc(-c2ccc(C(=O)N3CCC(OCC(=O)O)CC3)cc2)n1` [Example 84], the IC50 is > 25 µM.

Take `Cc1nc(C)c(-c2ccc(O)c(-c3ccc(C(=O)O)cc3)c2)s1` [Example 304]: the IC50 amounted to 54 µM.

With `Cc1nc(C)c(COc2ccc(C(=O)O)c(O)c2)s1` [Example 338], the concentration for half-maximal inhibition (IC50) was > 25 µM.

Turning to `Cc1nc(Cc2cccc(C#N)c2)sc1-c1cccc(-c2ccc(C(=O)O)c(O)c2)c1` [Example 308], the concentration for half-maximal inhibition (IC50) came out at 1 µM.

In the case of `Cc1nc(C)c(C2CCCN(c3ccc(C(=O)O)c(O)c3)C2)s1` (stereo not shown) [Example 122], the half-maximal inhibitory concentration (IC50) was > 250 µM.

For `Cc1nc(COCc2ccccn2)sc1-c1csc(-c2cc(O)c(C(=O)O)cc2F)n1` [Example 144], the IC50 came to 0.2 µM.

Take `Cc1ncc(-c2cccc(-c3ccc(C(=O)O)c(O)c3)c2)s1` [Example 325]: the IC50 came to 3.5 µM.

As for `Cc1nc(COc2ccc(C(F)(F)F)nc2)sc1-c1cccc(-c2ccc(C(=O)O)cc2)n1` [Example 61], the IC50 worked out at 1.3 µM.

For `Cc1ccc(C#N)c(OCCn2cc(-c3cccc(-c4ccc(C(=O)O)c(O)c4)c3)c(C)n2)n1` [Example 112], the concentration for half-maximal inhibition (IC50) amounted to 35 µM.

Take `Cc1nc(CNC(=O)C(C)(C)C)sc1-c1cccc(-c2cc(O)c(C(=O)O)cc2F)n1` [Example 150]: the IC50 turned out to be 0.5 µM.

Turning to `COC(=O)NCc1ccc(-c2csc(-c3cc(O)c(C(=O)O)cc3F)n2)cn1` [Example 187], the IC50 was determined as 1.7 µM.

For the compound `Cc1nc(COc2ccc(F)cn2)sc1-c1ccn(-c2ccc(C(=O)O)c(C(F)F)c2)n1` [Example 17], the IC50 came out at 0.89 µM.

Take `Cc1nc(C)c(-c2cc(-c3ccc(C(=O)O)cc3)ccc2C)s1` [Example 307]: the 50% inhibitory concentration (IC50) was > 250 µM.

Take `CCc1nc(C)c(-c2cccc(-c3ccc(C(=O)O)c(O)c3)c2)s1` [Example 323]: the concentration for half-maximal inhibition (IC50) turned out to be 1.6 µM.

As to `Cc1nc(COc2ncccn2)sc1-c1cccc(-c2cc(C(=O)O)nn2C(C)C)n1` [Example 30], the IC50 was determined as 15 µM.

`Cc1nc(COc2ccc(F)cn2)sc1-c1cccc(-c2ccc(C(=O)O)c(O)c2)n1` [Example 26]: the IC50 is 0.43 µM.

For the compound `Cc1nc(COc2ccc(C(F)(F)F)cn2)sc1-c1cccc(-c2ccc(C(=O)O)cc2)n1` [Example 56], the IC50 turned out to be 3.3 µM.

As for `Cc1nc(OCC2CCCCO2)sc1-c1cccc(-c2ccc(C(=O)O)cc2)n1` (stereo not shown) [Example 41], the 50% inhibitory concentration (IC50) came to 19 µM.

Turning to `Cc1nc(CC(F)(F)F)sc1-c1cccc(-c2ccc(C(=O)O)c(O)c2)c1` [Example 292], the 50% inhibitory concentration (IC50) is 5.8 µM.

With `Cc1nc(COc2ncccn2)sc1-c1cccc(-c2cc(C(=O)O)nn2C)n1` [Example 27], the concentration for half-maximal inhibition (IC50) came to 7.4 µM.

Regarding `Cc1nc(COc2ncccn2)sc1-c1cccc(-c2ccc(C(=O)O)c(C(=O)O)c2)n1` [Example 70], the half-inhibitory concentration (IC50) amounted to 11 µM.

`Cc1nc(CCC(N)=O)sc1-c1cccc(-c2ccc(C(=O)O)c(O)c2)c1` [Example 265]: the IC50 is 7.8 µM.

As to `Cc1nc(COc2ccc(F)cn2)sc1-c1ccn(-c2ccc(C(=O)O)c(O)c2)n1` [Example 21], the half-maximal inhibitory concentration (IC50) is 0.29 µM.

For the compound `COC(=O)NCc1nc(C)c(-c2csc(-c3cc(NC(=O)OC)c(C(=O)O)cc3F)n2)s1` [Example 196], the half-maximal inhibitory concentration (IC50) came out at 5.6 µM.

On to `Cc1nc(COc2ccccn2)sc1-c1cccc(-c2ccc(C(=O)O)cn2)c1` [Example 69], for which the half-maximal inhibitory concentration (IC50) is 5.5 µM.

On to `COC(=O)NCc1cc(C)c(-c2csc(-c3cc(O)c(C(=O)O)cc3F)n2)s1` [Example 179], for which the half-maximal inhibitory concentration (IC50) stood at 0.6 µM.

As for `Cc1ccc(C#N)c(OCC(=O)N2CCC(c3cccc(-c4ccc(C(=O)O)c(O)c4)c3)C2)n1` (stereo not shown) [Example 328], the IC50 was 45 µM.

Turning to `Cc1nc(COc2ncc(C(F)(F)F)cn2)sc1-c1cccc(-c2ccc(C(=O)O)cc2)n1` [Example 43], the IC50 came out at 23 µM.

Regarding `Cc1nc(CNC(C)C)sc1-c1csc(-c2cc(O)c(C(=O)O)cc2F)n1` [Example 176], the half-inhibitory concentration (IC50) turned out to be 0.89 µM.

With `Cc1nc(COCC2CCCO2)sc1-c1cccc(-c2ccc(C(=O)O)cc2)c1` (stereo not shown) [Example 46], the IC50 was found to be 1.2 µM.

As for `Cc1nc(C)c(-c2cccc(-c3ccc(C(=O)O)cc3)c2F)s1` [Example 297], the IC50 was 28 µM.
